Patent publication US9623108B2, “Formulation for oral administration with beneficial effects on the cardiovascular system” (ROTTAPHARM S.p.A., priority 2006, dated 2017)

Assays:
[1] = target: T1, HMG-CoA-r (Homo sapiens, UniProt P04035); settings: competition with HMG-CoA at HMG-CoA-r; cited from earlier work
T1 sequence (P04035 1-888): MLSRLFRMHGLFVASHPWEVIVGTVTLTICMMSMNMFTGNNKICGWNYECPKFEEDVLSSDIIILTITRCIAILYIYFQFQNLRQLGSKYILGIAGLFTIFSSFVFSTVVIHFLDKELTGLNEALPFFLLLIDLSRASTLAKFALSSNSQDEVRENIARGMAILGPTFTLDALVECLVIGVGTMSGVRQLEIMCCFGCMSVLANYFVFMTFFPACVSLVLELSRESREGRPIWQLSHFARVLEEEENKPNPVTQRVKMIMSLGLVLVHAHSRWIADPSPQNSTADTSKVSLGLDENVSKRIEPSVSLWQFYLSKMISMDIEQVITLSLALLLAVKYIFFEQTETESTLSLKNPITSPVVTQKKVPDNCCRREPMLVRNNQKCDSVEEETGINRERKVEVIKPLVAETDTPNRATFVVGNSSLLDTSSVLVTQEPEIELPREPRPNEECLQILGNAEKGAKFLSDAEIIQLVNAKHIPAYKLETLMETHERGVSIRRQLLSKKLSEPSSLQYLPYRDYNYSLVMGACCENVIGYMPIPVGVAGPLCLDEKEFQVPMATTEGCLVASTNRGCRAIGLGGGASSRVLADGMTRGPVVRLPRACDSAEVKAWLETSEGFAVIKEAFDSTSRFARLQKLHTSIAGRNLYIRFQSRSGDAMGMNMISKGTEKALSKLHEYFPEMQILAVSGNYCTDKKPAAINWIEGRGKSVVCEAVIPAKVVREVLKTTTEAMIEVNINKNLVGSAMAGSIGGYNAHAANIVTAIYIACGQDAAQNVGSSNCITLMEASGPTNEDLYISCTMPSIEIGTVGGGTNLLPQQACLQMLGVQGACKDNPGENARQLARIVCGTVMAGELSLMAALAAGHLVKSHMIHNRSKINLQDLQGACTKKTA

[2] = system: rabbits rendered hypercholesterolaemic and hypertriglyceridaemic; assay: Rabbits rendered hypercholesterolaemic and hypertriglyceridaemic with atherogenic feed, 3 months treatment, blood lipid analyses; assay type: in vivo, New Zealand White rabbits
Description: The action of the active principles, according to the composition of COMB, was tested and evaluated experimentally on rabbits rendered hypercholesterolaemic and hypertriglyceridaemic with a diet with added cholesterol, powdered egg yolk and lard. Note: all the daily doses used in the treatment groups, described in the experimental section, are about 4 times higher than those stated in the examples of formulation described in a later section. An exception is the group treated with berberine 100 mg/kg, for which the dose of active principle corresponds to about 13 times that contained in the examples of formulations intended for oral administration in humans. […] The difference in posology between animals and humans is perfectly normal in pharmacology, because it is well known that the pathologies induced experimentally in animals are always dramatically and unnaturally more severe than those that occur spontaneously in humans. New Zealand White rabbits of 6-8 weeks and with body weight of 1.8-2.0 kg. The following feeds, in pellets, were provided at a ration of 150 g of feed per day. Water was available ad libitum. ATER: Atherogenic feed, i.e. standard feed for guinea pigs and rabbits according to Sherman, in pellets (Laboratorio Dottori […].) with addition of 10% powdered egg yolk, 10% lard and 1% cholesterol according to Kong et al. [2004]. The substances under investigation were administered by stomach tube, once a day, suspended in 2 ml/kg of carboxymethylcellulose 0.2% (CMC). All the animals were acclimatized in the living quarters at 25±2° C. and relative humidity 55-65%. After 1 week, blood samples were taken in order to obtain the baseline data. The animals were then randomized to the following treatment groups of 10 rabbits each. AT: Controls with feed ATER and with daily administration of 2 ml/kg of CMC by stomach tube. Ber30: Feed AT, with daily administration of berberine 30 mg/kg in 2 ml/kg of CMC, by stomach tube. Ber100: Feed AT, with daily administration of berberine 100 mg/kg in 2 ml/kg of CMC, by stomach tube. Ass (reference association (combination) for lowering blood lipid level): Feed AT, with daily administration of Ass in 2 ml/kg of CMC, by stomach tube. COMB: Feed AT, with daily administration of Ass with addition of 30 mg/kg of berberine in 2 ml/kg of CMC, by stomach tube. The treatments were continued for 3 months. […] These analyses were carried out with suitably validated, conventional laboratory methods. A descriptive statistical analysis was performed using conventional methods of calculation.

[3] = system: hypercholesterolaemic patients; settings: berberine 500 mg b.i.d.; cited from earlier work
[4] = system: patients who had hypercholesterolaemia and hypertriglyceridaemia; settings: 500 mg berberine in a single dose once a day; cited from earlier work
[5] = NOAEL, doses repeated daily in an animal; assay type: in vivo; settings: equivalent of the animal NOAEL in humans
[6] = berberine 30 mg/kg/d by stomach tube, not statistically significant
[7] = berberine 100 mg/kg/d by stomach tube, p<0.001

## CC[C@H](C)C(=O)O[C@H]1C[C@@H](C)C=C2C=C[C@H](C)[C@H](CC[C@@H]3C[C@@H](O)CC(=O)O3)[C@H]21 [Monacoline K]
[1]
  activity for the enzyme relative to the natural substrate HMG-CoA: 2000 times

## COc1ccc2cc3[n+](cc2c1OC)CCc1cc2c(cc1-3)OCO2 [berberine, 5,6-dihydro-9,10-dimethoxybenzo[g]-1,3-benzodioxolo[5,6-a]quinolizinium]
[2]; berberine 30 mg/kg/d
  increase in HDL: 0.48 mmol/L
[2]; [6]
  reduction of the increase in LDL caused by AT: 13%
  reduction of the increase in total cholesterol (CT) caused by AT: 15%
[2]; berberine 30 mg/kg/d by stomach tube, p<0.01
  reduction of the increase in blood triglycerides (TG) caused by AT: 43%
[2]; berberine 100 mg/kg/d
  increase in HDL: 0.53 mmol/L
[2]; [7]
  reduction of the increase in LDL caused by AT: 89%
  reduction of the increase in blood triglycerides (TG) caused by AT: 66%
  reduction of the increase in total cholesterol (CT) caused by AT: 87%
[3]
  hepatic transaminases: decrease in hepatic transaminases
[4]
  hepatic transaminases: improved
  tolerability of the treatment: well tolerated

## CC1=C(/C=C/C(C)=C/C=C/C(C)=C/C=C/C=C(C)/C=C/C=C(C)/C=C/C2=C(C)C(=O)[C@@H](O)CC2(C)C)C(C)(C)C[C@H](O)C1=O [Ast, 3,3′-dihydroxy-β,β′-carotene-4,4′-dione]
[5]
  NOAEL equivalent in humans: more than 80 g
